Assay results taken from patent US5843947A, “N-pyridyl carboxamides and derivatives” (priority 1994, dated 1998).

Tests used:
[1] = system: inflammation induced by carrageenan (plantar edema); experiment: Anti-inflammatory activity: plantar edema using carrageenan; assay type: in vivo, Sprague-Dawley rats; details: rat, compounds 10 mg/kg oral 30 min before carrageenan, indomethacin 10 mg/kg
Method: The method used is that of plantar edema using carrageenan. The procedure used is as follows: 1% carrageenan in 0.2 ml of […] is administered into the sole of the right foot of Sprague-Dawley rats weighing 250 g on average. The volume of the paw is measured by plethysmography after one hour and after two hours.
The compounds of the invention are administered in a 10 mg/kg oral dose 30 minutes before the administration of carrageenan. A saline solution is injected into the sole of the left foot, which serves as a control.
The compounds of the invention make it possible to reduce the increase in volume of the right foot relative to that of the left foot (Table 1).

[2] = system: acute cutaneous inflammation (phorbol ester ear edema); experiment: Activity against acute cutaneous inflammation (topical), phorbol ester ear edema; assay type: in vivo; details: mouse, 6 hours
Method: Phorbol ester (phorbol 12-myristate 13-acetate) (5 μg) is applied topically to the front and back surfaces of the right ear of the mouse 30 minutes after application of the vehicle (95% ethanol) or of the agent (1 mg). The difference in thickness between the right ear and the left ear (edema) is measured 6 hours after application.
The percentage of inhibition of cutaneous inflammation relative to a group of animals treated topically with 95% ethanol is calculated. The compound of Example 1, at a rate of 1 mg/ear, allows a 63% reduction of the inflammation. Indomethacin, taken as a reference, at a dose of 2.5 mg/ear, allows a 67% reduction of inflammation.

[3] = system: chronic inflammation of the ear induced by repeated phorbol ester; details: 15 days after repeated application of phorbol ester; cited from earlier work
[4] = Study of the diuretic activity (urinary volume); assay type: in vivo, rats; details: 6 hours
[5] = system: chronic inflammation of the ear induced by repeated phorbol ester; experiment: Curative activity after repeated topical application in chronic inflammation of the ear, repeated phorbol ester (PMA) for 15 days (model of psoriasis); assay type: in vivo; details: mouse, 0.5 mg/ear
Method: Phorbol ester (1 μg) is applied topically to the front and back surfaces of the right ear of the mouse on days 0, 2, 4, 7, 9, 11 and 14. The vehicle or the agent is applied topically twice daily, on days 7, 8, 9, 10, 11, 12, 13 and 14, and once on the 15th day. On days 7, 9, 11 and 14 the vehicle or the agent is applied 30 minutes before and after the phorbol ester.
Two parameters are measured
1. Difference in thickness between the right and left ears every day and on days 0, 2, 4, 7, 9, 11 and 14, 6 hours after repeated application of the phorbol ester.
After repeated application of phorbol ester and after 15 days, the thickness reflects not only the presence of an edema and of an infiltration of lymphocyte and monocyte-macrophage neutrophil type cells in the skin tissue (inflammation) but also of an increase in the thickness of the epidermis (epidermal hyperplasia secondary to a proliferation of keratinocytes). […]
The products of the invention, in topical, curative and repeated use, inhibit, between the 8th and 10th days, the chronic inflammation of the right ear (measured, on the one hand, by the difference in thickness between the right ear and the left ear, and, on the other hand, by the difference in weight between the two ears after sacrificing the animal on the 15th day) induced by a repeated application of phorbol ester in mice.

[6] = system: arthritis induced by killed Mycobacterium tuberculosis (complete Freund adjuvant); experiment: Study of an activity of anti-arthritic type in rats (complete Freund adjuvant); assay type: in vivo, Lewis rats; details: rat, oral, days 1 to 5; day 18
Method: Groups of 5 male or female Lewis rats weighing from 130 to 150 g are used. A suspension of 0.3 mg of killed Mycobacterium tuberculosis in 0.1 cm^3 of mineral oil (complete Freund adjuvant, CFA) is administered into the subplantar region of the right hind foot on day 1. The volumes of the hind feet are measured by water displacement on days 0, 1, 5, 14 and 18. The rats are weighed on days 0 and 18. The test products are suspended in carboxymethylcellulose and administered orally for 5 consecutive days, on days 1 to 5. In parallel, a control group is used in order to eliminate artefacts resulting from the handling of the animals. A group treated with a reference product (hydrocortisone) allows the test to be validated.

Cc1cc(C)nc(NC(=O)c2cnccn2)c1
Percentage of inhibition, 1 h [1]: 55% | Percentage of inhibition, 2 h [1]: 64%

COc1ccc2c(c1)c(CC(=O)O)c(C)n2C(=O)c1ccc(Cl)cc1 [Indomethacin, reference compound]
reduction of inflammation, reference ([2]; 2.5 mg/ear): 67% | topical activity in the chronic model (in words) [3]: topically inactive | Percentage of inhibition, 1 h [1]: 24% | Percentage of inhibition, 2 h [1]: 64%

CN1C(C(=O)Nc2ccccn2)=C(O)c2ccccc2S1(=O)=O [piroxicam]
topical activity in the chronic model (in words) [3]: topically inactive

Cc1cc(C)nc(NC(=NN)c2cnccn2)c1 [Example 25, N-(4,6-DIMETHYL-2-PYRIDYL)-2-PYRAZINECARBOXAMIDE HYDRAZONE]
increase of urinary volume (factor relative to an untreated rat) ([4]; 3 mg/kg p.o.): 2.8

Cc1nc(N)c(NC(=O)Cc2ccsc2)c(C)c1Br [Example 17, N-(2-AMINO-5-BROMO-4,6-DIMETHYL-3-PYRIDYL)-3-THIENYLACETAMIDE]
reduction of the difference in thickness between the two ears [5]: 60% | reduction of the weight difference ([5]; ear punches): 38%

NS(=O)(=O)c1cc(C(=O)O)c(NCc2ccco2)cc1Cl [furosemide, reference compound]
increase of urinary volume (factor), reference ([4]; rat, 5 mg/kg p.o.): 3

Cc1cc(C)nc(NC(=O)Cc2cccs2)c1 [Example 1, N-(4,6-DIMETHYL-2-PYRIDYL)-2-THIENYLACETAMIDE]
reduction of the inflammation ([2]; 1 mg/ear): 63% | reduction in the volume of the right hind foot [6]: 47%

cyclosporin A
topical activity in the chronic model (in words) [3]: topically active

Cc1cc(C)nc(NC(=O)Cc2cccs2)c1 [drawing 58]
Percentage of inhibition, 1 h [1]: 63% | Percentage of inhibition, 2 h [1]: 70%
